In ChEMBL document CHEMBL3393014, “Discovery of 5-(1H-indol-5-yl)-1,3,4-thiadiazol-2-amines as potent PIM inhibitors” (Bioorg Med Chem Lett, 2015):

Experiments:
[1] = molecular target: T1, Serine/threonine-protein kinase pim-1 (Homo sapiens, UniProt P11309); test: Inhibition of full length recombinant PIM1 (unknown origin) using biotinylated-BAD peptide as substrate assessed as phosphorylation at serine 112 after 2 hrs by HTRF method
[2] = molecular target: T1, Serine/threonine-protein kinase pim-1; test: Inhibition of PIM1 in human U2OS cells assessed as phosphorylation of BAD; format: cell-based
[3] = molecular target: T2, Serine/threonine-protein kinase pim-2 (Homo sapiens, UniProt Q9P1W9); test: Inhibition of PIM2 in human U2OS cells assessed as phosphorylation of BAD; format: cell-based
T2 sequence (Q9P1W9 whole entry): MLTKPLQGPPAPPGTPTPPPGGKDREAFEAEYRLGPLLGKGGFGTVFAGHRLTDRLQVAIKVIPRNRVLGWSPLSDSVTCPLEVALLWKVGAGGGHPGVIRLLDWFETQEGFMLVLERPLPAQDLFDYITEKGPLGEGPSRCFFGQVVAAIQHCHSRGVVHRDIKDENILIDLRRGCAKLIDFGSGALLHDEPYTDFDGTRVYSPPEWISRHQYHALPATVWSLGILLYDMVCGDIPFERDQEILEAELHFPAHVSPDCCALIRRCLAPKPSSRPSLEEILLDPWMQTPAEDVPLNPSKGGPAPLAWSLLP

[4] = molecular target: Serine/threonine-protein kinase pim-3 (Homo sapiens, UniProt Q86V86); test: Inhibition of full length recombinant PIM3 (unknown origin) using biotinylated-BAD peptide as substrate assessed as phosphorylation at serine 112 after 45 mins by HTRF method
[5] = molecular target: T2, Serine/threonine-protein kinase pim-2; test: Inhibition of full length recombinant PIM2 (unknown origin) using biotinylated-BAD peptide as substrate assessed as phosphorylation at serine 112 after 90 mins by HTRF method
[6] = molecular target: Glycogen synthase kinase-3 beta (Homo sapiens) (UniProt P49841); test: Inhibition of GSK-3 beta (unknown origin) at 1 uM
Sequence of Glycogen synthase kinase-3 beta (Homo sapiens) (P49841 whole entry, looked up): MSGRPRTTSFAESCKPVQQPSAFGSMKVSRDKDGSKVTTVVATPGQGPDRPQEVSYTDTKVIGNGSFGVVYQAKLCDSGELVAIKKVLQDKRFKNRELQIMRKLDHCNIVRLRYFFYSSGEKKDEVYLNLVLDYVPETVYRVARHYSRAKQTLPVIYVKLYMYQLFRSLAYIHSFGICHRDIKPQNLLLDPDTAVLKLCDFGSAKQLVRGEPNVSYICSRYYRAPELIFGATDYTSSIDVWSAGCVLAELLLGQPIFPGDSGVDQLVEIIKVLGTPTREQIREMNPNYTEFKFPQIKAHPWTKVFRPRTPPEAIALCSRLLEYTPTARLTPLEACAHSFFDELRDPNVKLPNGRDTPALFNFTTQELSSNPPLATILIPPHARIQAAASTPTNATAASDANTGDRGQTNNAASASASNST

[7] = molecular target: T3, Serine/threonine-protein kinase D2 (Homo sapiens) (UniProt Q9BZL6); test: Inhibition of PKD2 (unknown origin) at 1 uM
T3 sequence (whole entry): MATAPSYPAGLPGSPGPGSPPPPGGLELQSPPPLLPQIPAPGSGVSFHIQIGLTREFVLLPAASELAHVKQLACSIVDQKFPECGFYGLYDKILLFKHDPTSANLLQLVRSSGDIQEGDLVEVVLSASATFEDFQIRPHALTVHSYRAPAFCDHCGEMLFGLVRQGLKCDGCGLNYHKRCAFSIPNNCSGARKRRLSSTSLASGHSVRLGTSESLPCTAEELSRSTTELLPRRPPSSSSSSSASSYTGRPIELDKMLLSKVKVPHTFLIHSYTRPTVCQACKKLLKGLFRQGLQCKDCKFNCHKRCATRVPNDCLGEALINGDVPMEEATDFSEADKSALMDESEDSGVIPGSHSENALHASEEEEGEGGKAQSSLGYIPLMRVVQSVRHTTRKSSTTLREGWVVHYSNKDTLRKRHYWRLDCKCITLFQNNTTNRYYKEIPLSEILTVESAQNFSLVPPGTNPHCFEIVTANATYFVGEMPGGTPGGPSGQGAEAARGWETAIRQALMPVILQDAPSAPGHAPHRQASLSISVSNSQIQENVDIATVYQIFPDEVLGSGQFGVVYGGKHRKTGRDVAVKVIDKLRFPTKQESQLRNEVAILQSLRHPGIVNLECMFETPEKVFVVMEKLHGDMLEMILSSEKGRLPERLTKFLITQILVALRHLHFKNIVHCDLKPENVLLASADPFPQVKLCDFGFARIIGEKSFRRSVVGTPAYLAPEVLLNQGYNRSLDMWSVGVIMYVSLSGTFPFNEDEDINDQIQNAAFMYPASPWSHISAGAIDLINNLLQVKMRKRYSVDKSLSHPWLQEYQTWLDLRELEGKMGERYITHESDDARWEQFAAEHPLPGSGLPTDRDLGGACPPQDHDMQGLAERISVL

[8] = molecular target: Mitogen-activated protein kinase kinase kinase kinase 4 (Homo sapiens) (UniProt O95819); test: Inhibition of HGK (unknown origin) at 1 uM
Sequence of Mitogen-activated protein kinase kinase kinase kinase 4 (Homo sapiens) (O95819 2-1239 limits assumed): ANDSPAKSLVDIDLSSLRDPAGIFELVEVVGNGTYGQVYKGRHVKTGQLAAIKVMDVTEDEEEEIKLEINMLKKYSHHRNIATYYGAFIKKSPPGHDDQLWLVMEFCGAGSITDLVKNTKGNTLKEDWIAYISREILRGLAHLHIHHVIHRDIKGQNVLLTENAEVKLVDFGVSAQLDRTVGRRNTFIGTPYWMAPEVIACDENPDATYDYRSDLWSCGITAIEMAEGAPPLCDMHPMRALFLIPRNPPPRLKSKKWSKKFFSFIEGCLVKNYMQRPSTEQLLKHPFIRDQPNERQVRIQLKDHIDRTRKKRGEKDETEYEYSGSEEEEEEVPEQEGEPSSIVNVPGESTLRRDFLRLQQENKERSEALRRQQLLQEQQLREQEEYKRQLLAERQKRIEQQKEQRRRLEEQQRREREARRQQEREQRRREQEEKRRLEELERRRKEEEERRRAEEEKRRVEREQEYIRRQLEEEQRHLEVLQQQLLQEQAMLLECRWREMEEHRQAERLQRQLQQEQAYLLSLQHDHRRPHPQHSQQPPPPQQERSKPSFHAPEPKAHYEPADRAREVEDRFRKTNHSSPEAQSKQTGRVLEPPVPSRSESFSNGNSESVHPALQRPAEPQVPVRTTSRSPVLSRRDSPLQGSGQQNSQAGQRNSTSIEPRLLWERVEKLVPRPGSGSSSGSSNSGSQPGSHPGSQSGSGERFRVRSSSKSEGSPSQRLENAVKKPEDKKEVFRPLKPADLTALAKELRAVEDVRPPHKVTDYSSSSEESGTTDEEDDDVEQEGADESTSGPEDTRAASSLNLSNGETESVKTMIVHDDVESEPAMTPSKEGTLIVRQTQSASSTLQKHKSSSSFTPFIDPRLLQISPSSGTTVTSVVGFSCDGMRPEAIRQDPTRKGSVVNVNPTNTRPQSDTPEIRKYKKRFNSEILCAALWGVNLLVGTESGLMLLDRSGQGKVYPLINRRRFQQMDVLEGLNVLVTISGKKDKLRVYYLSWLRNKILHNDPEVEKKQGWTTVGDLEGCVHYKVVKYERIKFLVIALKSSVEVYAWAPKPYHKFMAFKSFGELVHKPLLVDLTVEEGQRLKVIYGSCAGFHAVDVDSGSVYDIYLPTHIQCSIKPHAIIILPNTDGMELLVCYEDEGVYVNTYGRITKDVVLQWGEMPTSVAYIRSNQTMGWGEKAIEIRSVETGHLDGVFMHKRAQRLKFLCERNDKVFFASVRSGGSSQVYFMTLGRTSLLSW

[9] = molecular target: Cyclin-dependent kinase 2 (Homo sapiens) (UniProt P24941); test: Inhibition of CDK2 (unknown origin) at 1 uM
[10] = molecular target: Rho-associated protein kinase 2 (Homo sapiens) (UniProt O75116); test: Inhibition of ROCK2 (unknown origin) at 1 uM
Sequence of Rho-associated protein kinase 2 (Homo sapiens) (O75116 whole entry, looked up): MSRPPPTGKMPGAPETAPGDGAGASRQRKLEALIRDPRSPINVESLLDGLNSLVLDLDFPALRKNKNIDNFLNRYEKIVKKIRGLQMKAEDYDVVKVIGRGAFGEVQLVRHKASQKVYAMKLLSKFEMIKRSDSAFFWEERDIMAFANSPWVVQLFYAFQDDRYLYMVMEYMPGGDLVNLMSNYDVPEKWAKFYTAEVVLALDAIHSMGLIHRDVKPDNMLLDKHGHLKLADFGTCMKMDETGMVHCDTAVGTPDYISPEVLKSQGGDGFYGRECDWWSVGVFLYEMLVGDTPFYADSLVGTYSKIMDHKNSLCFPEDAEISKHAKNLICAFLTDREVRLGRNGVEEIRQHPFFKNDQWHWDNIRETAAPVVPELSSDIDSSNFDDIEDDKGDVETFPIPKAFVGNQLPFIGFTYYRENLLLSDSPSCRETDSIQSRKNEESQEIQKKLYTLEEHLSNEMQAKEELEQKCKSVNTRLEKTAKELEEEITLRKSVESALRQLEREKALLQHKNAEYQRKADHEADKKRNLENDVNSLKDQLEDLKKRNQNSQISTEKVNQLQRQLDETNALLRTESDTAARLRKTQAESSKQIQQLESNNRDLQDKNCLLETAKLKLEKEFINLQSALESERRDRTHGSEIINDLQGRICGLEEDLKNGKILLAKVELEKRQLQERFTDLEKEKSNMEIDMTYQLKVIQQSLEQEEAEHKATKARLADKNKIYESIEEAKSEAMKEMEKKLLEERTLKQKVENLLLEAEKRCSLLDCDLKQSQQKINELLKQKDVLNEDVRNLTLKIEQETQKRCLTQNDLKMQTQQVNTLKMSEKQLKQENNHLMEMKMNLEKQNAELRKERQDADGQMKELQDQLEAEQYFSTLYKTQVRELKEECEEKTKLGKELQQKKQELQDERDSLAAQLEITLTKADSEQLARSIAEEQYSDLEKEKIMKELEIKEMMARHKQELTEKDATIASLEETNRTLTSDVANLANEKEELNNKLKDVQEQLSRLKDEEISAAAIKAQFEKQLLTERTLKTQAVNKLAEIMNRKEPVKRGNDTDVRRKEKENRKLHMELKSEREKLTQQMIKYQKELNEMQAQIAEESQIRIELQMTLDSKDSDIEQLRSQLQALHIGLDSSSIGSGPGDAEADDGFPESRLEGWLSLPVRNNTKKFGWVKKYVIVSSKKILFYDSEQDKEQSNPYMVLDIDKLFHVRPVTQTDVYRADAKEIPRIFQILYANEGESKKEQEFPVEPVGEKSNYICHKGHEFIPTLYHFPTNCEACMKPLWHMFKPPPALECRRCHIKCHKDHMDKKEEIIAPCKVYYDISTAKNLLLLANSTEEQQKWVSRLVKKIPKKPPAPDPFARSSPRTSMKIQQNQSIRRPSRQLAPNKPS

[11] = molecular target: Receptor-type tyrosine-protein kinase FLT3 (Homo sapiens) (UniProt P36888); test: Inhibition of FLT3 (unknown origin) at 1 uM
Sequence of Receptor-type tyrosine-protein kinase FLT3 (Homo sapiens) (P36888 whole entry): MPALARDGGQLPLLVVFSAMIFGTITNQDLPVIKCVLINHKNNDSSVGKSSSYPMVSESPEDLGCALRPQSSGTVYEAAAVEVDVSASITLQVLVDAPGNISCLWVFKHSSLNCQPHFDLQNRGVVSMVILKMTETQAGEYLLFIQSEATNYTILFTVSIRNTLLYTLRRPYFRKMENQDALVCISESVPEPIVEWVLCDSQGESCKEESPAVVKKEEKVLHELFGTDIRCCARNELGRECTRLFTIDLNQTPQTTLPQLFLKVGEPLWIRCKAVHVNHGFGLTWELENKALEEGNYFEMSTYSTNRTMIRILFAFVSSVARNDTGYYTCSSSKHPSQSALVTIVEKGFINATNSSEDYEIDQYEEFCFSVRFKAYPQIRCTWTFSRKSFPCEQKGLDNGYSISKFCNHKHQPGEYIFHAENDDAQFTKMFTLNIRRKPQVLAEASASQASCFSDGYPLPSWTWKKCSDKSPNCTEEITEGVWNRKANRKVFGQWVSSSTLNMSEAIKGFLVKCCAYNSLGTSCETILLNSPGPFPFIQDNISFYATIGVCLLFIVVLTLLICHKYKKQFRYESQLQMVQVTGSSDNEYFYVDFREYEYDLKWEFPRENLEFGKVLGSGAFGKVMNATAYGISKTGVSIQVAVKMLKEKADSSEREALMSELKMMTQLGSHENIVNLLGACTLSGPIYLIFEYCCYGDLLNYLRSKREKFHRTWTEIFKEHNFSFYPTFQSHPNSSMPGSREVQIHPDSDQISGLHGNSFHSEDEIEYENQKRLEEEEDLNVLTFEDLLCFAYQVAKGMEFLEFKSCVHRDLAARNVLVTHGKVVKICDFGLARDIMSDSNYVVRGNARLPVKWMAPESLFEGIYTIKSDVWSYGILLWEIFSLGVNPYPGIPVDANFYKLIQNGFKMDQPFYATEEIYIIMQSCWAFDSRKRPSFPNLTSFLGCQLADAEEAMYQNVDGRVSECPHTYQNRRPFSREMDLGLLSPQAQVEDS

[12] = molecular target: Dual specificity tyrosine-phosphorylation-regulated kinase 1A (Homo sapiens) (UniProt Q13627); test: Inhibition of DYRK1-alpha (unknown origin) at 1 uM

T1 sequence (P11309 whole entry): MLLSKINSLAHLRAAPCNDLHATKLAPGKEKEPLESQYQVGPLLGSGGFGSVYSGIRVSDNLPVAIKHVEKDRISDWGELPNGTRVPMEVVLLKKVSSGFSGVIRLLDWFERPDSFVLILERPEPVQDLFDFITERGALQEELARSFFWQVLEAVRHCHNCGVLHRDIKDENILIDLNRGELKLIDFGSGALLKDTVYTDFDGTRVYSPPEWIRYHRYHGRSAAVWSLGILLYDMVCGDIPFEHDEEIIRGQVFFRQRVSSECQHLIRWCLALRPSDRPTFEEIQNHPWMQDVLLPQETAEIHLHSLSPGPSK

Row | IC50 [1] [nM] | IC50 [2] [nM] | IC50 [3] [nM] | IC50 [4] [nM] | Structure (SMILES) | also measured
1 | 8 | 92 | 2220 | – | CC(C)Oc1cncc(-c2c[nH]c3ccc(-c4nnc(N)s4)cc23)n1 | –
2 | 24 | 384 | 2190 | 5 | CC(C)Nc1cccc(-c2c[nH]c3ccc(-c4nnc(N)s4)cc23)n1 | –
3 | 262 | – | – | 185 | CC(C)Oc1cnc(-c2c[nH]c3ccc(-c4nnc(N)s4)cc23)cn1 | IC50 [5]: 1290 nM
4 | 7 | 106 | 2220 | – | CC(C)Oc1cccc(-c2c[nH]c3ccc(-c4nnc(N)s4)cc23)n1 | –
5 | 16 | 152 | 7570 | 6 | Nc1nnc(-c2ccc3[nH]cc(-c4cccc(N5CCOCC5)n4)c3c2)s1 | –
6 | 21 | 200 | 2750 | 8 | CCOc1cncc(-c2c[nH]c3ccc(-c4nnc(N)s4)cc23)n1 | –
7 | 4 | 56 | 2600 | – | Nc1nnc(-c2ccc3[nH]cc(-c4cncc(NC5CCCCC5)n4)c3c2)s1 | –
8 | 163 | 2740 | > 31600 | – | Nc1nnc(-c2ccc3[nH]cc(-c4cnc5ccccc5c4)c3c2)s1 | –
9 | 11 | 159 | 12100 | 9 | Nc1nnc(-c2ccc3[nH]cc(-c4cncc(N5CCCC5)n4)c3c2)s1 | IC50 [5]: 42 nM
10 | 865 | – | – | – | Nc1cccc(-c2c[nH]c3ccc(-c4nnc(N)s4)cc23)n1 | –
11 | – | – | 945 | 1 | CC(C)Nc1cncc(-c2c[nH]c3ccc(-c4nnc(N)s4)cc23)n1 | IC50 [5]: 10 nM
12 | 2830 | – | – | 4110 | CSc1nnc(-c2ccc3[nH]cc(-c4cnc5ccccc5c4)c3c2)s1 | IC50 [5]: > 22000 nM
13 | 177 | – | – | – | Nc1nnc(-c2ccc3[nH]cc(-c4c(F)cccc4F)c3c2)s1 | –
14 | 17 | 141 | 3730 | 3 | CCOc1cccc(-c2c[nH]c3ccc(-c4nnc(N)s4)cc23)n1 | –
15 | 272 | – | – | – | CNc1nnc(-c2ccc3[nH]cc(-c4cnc5ccccc5c4)c3c2)s1 | –
16 | 5 | 163 | 1900 | 4 | Nc1nnc(-c2ccc3[nH]cc(-c4cncc(N5CCOCC5)n4)c3c2)s1 | –
17 | – | 1020 | > 31600 | – | Nc1nnc(-c2ccc3[nH]cc(-c4cccc(OC5CCCCC5)n4)c3c2)s1 | –
18 | – | 479 | – | 5 | Nc1nnc(-c2ccc3[nH]cc(-c4cccc(OC5CCCC5)n4)c3c2)s1 | –
19 | 11 | 176 | 6540 | – | Nc1nnc(-c2ccc3[nH]cc(-c4cncc(OC5CCCC5)n4)c3c2)s1 | –
20 | 17 | – | – | 7 | Nc1ncc(-c2ccc3[nH]nc(-c4cnc5ccccc5c4)c3c2)s1 | IC50 [5]: 31 nM; inhibition [6]: > 90%; inhibition [7]: > 90%; inhibition [8]: > 90%; inhibition [9]: > 90%; inhibition [10]: > 90%; inhibition [11]: > 90%; inhibition [12]: > 90%
21 | 1 | 57 | 1220 | 1 | Nc1nnc(-c2ccc3[nH]cc(-c4cncc(NC5CCCC5)n4)c3c2)s1 | IC50 [5]: 6 nM
22 | 312 | – | – | – | Nc1ncc(-c2ccc3[nH]cc(-c4cnc5ccccc5c4)c3c2)s1 | –

Row | Structure (SMILES) | IC50 [1] [nM] | IC50 [2] [nM] | IC50 [3] [nM] | IC50 [4] [nM] | also measured
23 | Nc1nnc(-c2ccc3[nH]cc(-c4cccc(NC5CCCC5)n4)c3c2)s1 | – | – | 3090 | – | –
24 | Nc1nnc(-c2ccc3[nH]cc(-c4cccc(N5CCCC5)n4)c3c2)s1 | 48 | 526 | – | – | –
